The target of one data set is Plasminogen (Homo sapiens, UniProt P00747). Description: Inhibitory activity against plasmin in human plasma.
A further data set addresses Serine protease 1 (Homo sapiens, UniProt P07477). In words: Inhibitory activity against trypsin.
A further data set deals with Prothrombin (Homo sapiens, UniProt P00734). Description: In vitro inhibitory activity against thrombin in human plasma. The format is cell-free.
The next data set deals with Coagulation factor X (Homo sapiens, UniProt P00742). Description: Inhibitory activity against coagulation factor X in human plasma. The format is cell-free.
Data set [1] in a line: Partition coefficient (logP). The format is physicochemical. Conditions: octanol/water.
For a further data set, the species on record is Homo sapiens. Description: Effective dose (in vitro) using activated partial thromboplastin time (aPTT). It counts as functional.

Where only a bound is given, the exact number is not on record here.

Serine protease 1, sequence (P07477 whole entry): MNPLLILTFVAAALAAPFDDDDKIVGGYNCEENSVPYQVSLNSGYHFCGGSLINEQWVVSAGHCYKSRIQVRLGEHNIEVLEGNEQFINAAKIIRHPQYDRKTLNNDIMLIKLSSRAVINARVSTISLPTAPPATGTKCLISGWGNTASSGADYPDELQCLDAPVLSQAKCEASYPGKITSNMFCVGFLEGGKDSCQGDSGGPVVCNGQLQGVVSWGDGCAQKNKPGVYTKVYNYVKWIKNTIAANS
Plasminogen, sequence (P00747 97-580 limits assumed): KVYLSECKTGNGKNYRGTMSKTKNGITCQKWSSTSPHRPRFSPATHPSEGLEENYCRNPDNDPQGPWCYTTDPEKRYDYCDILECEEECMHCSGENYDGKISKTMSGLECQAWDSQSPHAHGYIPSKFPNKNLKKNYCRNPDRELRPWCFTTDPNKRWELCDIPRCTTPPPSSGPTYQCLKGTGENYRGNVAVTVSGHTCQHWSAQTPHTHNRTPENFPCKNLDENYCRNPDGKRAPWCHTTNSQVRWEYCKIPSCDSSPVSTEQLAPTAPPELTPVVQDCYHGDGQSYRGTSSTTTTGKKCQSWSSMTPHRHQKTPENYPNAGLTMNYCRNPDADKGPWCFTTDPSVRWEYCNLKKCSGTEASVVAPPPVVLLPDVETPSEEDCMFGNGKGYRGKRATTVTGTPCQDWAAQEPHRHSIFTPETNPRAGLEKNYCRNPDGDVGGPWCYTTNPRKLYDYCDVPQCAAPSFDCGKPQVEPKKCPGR
Plasminogen, sequence (P00747 581-810 limits assumed): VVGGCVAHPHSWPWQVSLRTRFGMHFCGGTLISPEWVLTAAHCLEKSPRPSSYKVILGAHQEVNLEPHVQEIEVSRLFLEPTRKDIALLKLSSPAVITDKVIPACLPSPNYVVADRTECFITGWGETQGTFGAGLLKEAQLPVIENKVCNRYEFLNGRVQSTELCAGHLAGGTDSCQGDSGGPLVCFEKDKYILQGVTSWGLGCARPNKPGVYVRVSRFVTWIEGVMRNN
Coagulation factor X, sequence (P00742 41-179 limits assumed): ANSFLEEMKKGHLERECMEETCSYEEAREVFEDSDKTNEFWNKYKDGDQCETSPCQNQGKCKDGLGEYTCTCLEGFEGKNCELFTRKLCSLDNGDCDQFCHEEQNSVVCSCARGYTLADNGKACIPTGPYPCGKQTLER
Coagulation factor X, sequence (P00742 235-488 limits assumed): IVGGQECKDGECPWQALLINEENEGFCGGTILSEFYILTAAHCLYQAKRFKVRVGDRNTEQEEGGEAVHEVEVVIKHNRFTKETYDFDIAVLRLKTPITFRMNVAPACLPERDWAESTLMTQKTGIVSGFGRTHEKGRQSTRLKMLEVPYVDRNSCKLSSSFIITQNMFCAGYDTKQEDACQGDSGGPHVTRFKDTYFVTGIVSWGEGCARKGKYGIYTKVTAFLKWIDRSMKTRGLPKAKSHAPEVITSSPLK

In the case of `CCOC(=O)C(C)(C)c1ccc2c(C)cc(Oc3ccc(C(=N)N)cc3)nc2c1`, the IC50 is 20000 nM against Plasminogen, 2400 nM at Serine protease 1 and 6 nM at Prothrombin.
As to `C/C(=C\C(=O)O)c1ccc2c(C)cc(Oc3ccc(C(=N)N)cc3)nc2c1`, the IC50 against Plasminogen came to 25000 nM; against Serine protease 1, 8100 nM; on Prothrombin, 600 nM.
`Cc1cc(Nc2ccc(C(=N)N)cc2)nc2cc(Br)ccc12`: 87 nM corresponded to half-maximal inhibition at Prothrombin (IC50).
In the case of `CCOC(=O)C1(c2ccc3c(C)cc(Oc4ccc(C(=N)N)cc4)nc3c2)CCCC1`, the IC50 on Plasminogen was 5800 nM; against Coagulation factor X, 1500 nM; on Serine protease 1 it was 560 nM; against Prothrombin, 3 nM.
As to `CCOC(=O)/C=C(\C)c1ccc2c(C)cc(Oc3ccc(C(=N)N)cc3)nc2c1`, the IC50 against Plasminogen came out at 6400 nM; against Serine protease 1 it was 6700 nM; at Prothrombin, 16 nM.
In the case of `Cc1ccc(C(=O)NCC(=O)O)cc1-c1ccc2c(C)cc(Oc3ccc(C(=N)N)cc3)nc2c1`, the logP in data set [1] stood at 0.5. The compound also returned an IC50 against Prothrombin of 8 nM. In the data set filed under Homo sapiens, this compound returned an ED200 of 0.9 µM.
With `CCOC(=O)Cc1ccc2c(C)cc(Oc3ccc(C(=N)N)cc3)nc2c1`, half-maximal inhibition on Prothrombin (IC50) required 92 nM.
For `CCOC(=O)C(CC)c1ccc2c(C)cc(Oc3ccc(C(=N)N)cc3)nc2c1` (stereo not given), the IC50 on Prothrombin was determined as 10 nM.
The same measure, in the same setting: the same measure for `Cc1cc(Oc2ccc(C(=N)N)cc2)nc2cc(Br)ccc12`: 66 nM.
Consider `Cc1ccccc1-c1ccc2c(C)cc(Oc3ccc(C(=N)N)cc3)nc2c1`, for which the results for the IC50 against Plasminogen, against Serine protease 1 and on Prothrombin were 8300 nM, 2900 nM and 6 nM, respectively. In addition, in data set [1], the logP is over 3.5. This compound returned an ED200 in the data set filed under Homo sapiens of 7.9 µM.
Consider `Cc1cc(Sc2ccc(C(=N)N)cc2)nc2cc(Br)ccc12`, for which it took 196 nM to reach half-maximal inhibition on Prothrombin (IC50).
Take `Cc1ccc(-c2ccc3c(C)cc(Oc4ccc(C(=N)N)cc4)nc3c2)cc1`: the IC50 worked out at 12200 nM on Plasminogen, 4200 nM on Serine protease 1 and 18 nM on Prothrombin.
As to `Cc1ccccc1-c1ccc2c(C)cc(Nc3ccc(C(=N)N)cc3)nc2c1`, the IC50 against Plasminogen was found to be 14800 nM; against Serine protease 1, 3500 nM; on Prothrombin, 37 nM.
In data set [1], `CCOC(=O)CNC(=O)c1ccc(C)c(-c2ccc3c(C)cc(Oc4ccc(C(=N)N)cc4)nc3c2)c1` came in with a logP of 1.3. This compound gave an IC50 against Prothrombin of 10 nM. This compound also had an ED200 in the data set listed under Homo sapiens of 3.3 µM.

(Values after ChEMBL document CHEMBL1136099, “Heterocyclic thrombin inhibitors. Part 1: design and synthesis of amidino-phenoxy quinoline derivatives” (Bioorg Med Chem Lett, 2003).)
